# Tests used:
# Conditions in all cases: 72 h
# Caco-2 [1] = assay: cell viability relative to DMSO; higher = less toxic
# Vero E6 [2] = assay: as above
# U2OS [3] = assay: as above
# Calu-3 [4] = assay: as above
# HepG2 [5] = assay: as above
# Caco-2 [6] = assay: drug sensitivity score (DSS) for viability; higher = more toxic; extreme values may be limits of the assay
# Vero E6 [7] = assay: as above
# U2OS [8] = assay: as above
# Calu-3 [9] = assay: as above
# HepG2 [10] = assay: as above
# U2OS [11] = assay: relative viability EC50 (midpoint between 100% and the lowest measured viability); higher = less toxic
# Calu-3 [12] = assay: as above
# HepG2 [13] = assay: as above
# Caco-2 [14] = assay: as above
SMILES,cell viability (Caco-2 [1]; 1 nM) [%],cell viability (Caco-2 [1]; 10 nM) [%],cell viability (Caco-2 [1]; 100 nM) [%],cell viability (Caco-2 [1]; 1000 nM) [%],cell viability (Caco-2 [1]; 10000 nM) [%],cell viability (Vero E6 [2]; 1 nM) [%],cell viability (Vero E6 [2]; 10 nM) [%],cell viability (Vero E6 [2]; 100 nM) [%],cell viability (Vero E6 [2]; 1000 nM) [%],cell viability (Vero E6 [2]; 10000 nM) [%],cell viability (U2OS [3]; 1 nM) [%],cell viability (U2OS [3]; 10 nM) [%],cell viability (U2OS [3]; 100 nM) [%],cell viability (U2OS [3]; 1000 nM) [%],cell viability (U2OS [3]; 10000 nM) [%],cell viability (Calu-3 [4]; 1 nM) [%],cell viability (Calu-3 [4]; 10 nM) [%],cell viability (Calu-3 [4]; 100 nM) [%],cell viability (Calu-3 [4]; 1000 nM) [%],cell viability (Calu-3 [4]; 10000 nM) [%],cell viability (HepG2 [5]; 1 nM) [%],cell viability (HepG2 [5]; 10 nM) [%],cell viability (HepG2 [5]; 100 nM) [%],cell viability (HepG2 [5]; 1000 nM) [%],cell viability (HepG2 [5]; 10000 nM) [%],drug sensitivity score (Caco-2 [6]),drug sensitivity score (Vero E6 [7]),drug sensitivity score (U2OS [8]),drug sensitivity score (Calu-3 [9]),drug sensitivity score (HepG2 [10]),relative viability EC50 (U2OS [11]) [µM],relative viability EC50 (Calu-3 [12]) [µM],relative viability EC50 (HepG2 [13]) [µM],relative viability EC50 (Caco-2 [14]) [µM]
CC(=O)Nc1ccc(C(=O)Nc2ccccc2N)cc1 [tacedinaline],97.3,95.2,93.4,99.9,52.7,99,104,97.9,92.8,54.7,99,103,95.1,90.7,43.1,101,99.8,97.1,74.5,42.3,104,85.5,98,74.4,40.8,2.5,3.5,4.6,6.1,6.3,1.91,1.14,1.15,
NC(=O)c1cccc2cn(-c3ccc([C@@H]4CCCNC4)cc3)nc12 [niraparib],92.7,106,89.9,96.4,88.1,102,102,102,95.8,73,101,95.4,101,97.3,106,97,104,110,106,97.6,83.9,109,99.4,95.4,62.9,0,1.7,0,0,2.5,> 10,> 10,,> 10
CCOC(=O)C1=C(C)NC(c2ccccc2)=C(C(=O)OCc2ccc([N+](=O)[O-])cc2)[C@@H]1C#Cc1ccccc1 [MRS-1334],99.1,99.7,92.8,96.8,91.9,,,,,,104,95.8,100,101,97.9,99.2,97.1,96.8,95.2,98,114,104,100,92.6,89.3,0,,0,0,0.1,> 10,> 10,> 10,> 10
CCc1cc(C(C)=O)c(O)cc1OCCCCCC(C)(C)c1nn[nH]n1,102,92.1,99.5,107,94.5,,,,,,94,96.2,88.1,97.4,95.5,108,103,97.1,98,93.3,99.8,107,105,88.4,107,0,,0,0,0,> 10,> 10,> 10,> 10
OCCOCCN1CCN(C(c2ccccc2)c2ccc(Cl)cc2)CC1 (configuration not stated) [hydroxyzine],94.2,101,106,101,94,,,,,,97.9,99.8,96.8,100,93.8,101,115,93.3,106,96.7,101,96.4,104,108,105,0,,0,0,0,> 10,> 10,> 10,> 10
CC(=O)OC[C@H]1O[C@@H](n2ccc(=O)[nH]c2=O)[C@H](OC(C)=O)[C@@H]1OC(C)=O [uridine-triacetate],101,110,114,97.2,115,,,,,,,,,,,,,,,,106,113,106,109,95.4,0,,,,0,,,> 10,> 10
CCS(=O)(=O)c1ccc2oc(-c3ccc4ccccc4c3)nc2c1 [ezutromid],103,89,91.4,91.8,90.2,,,,,,101,97.7,105,97.4,97.2,,,,,,99.8,121,102,102,94.3,0.7,,0,,0,> 10,,> 10,> 10
COc1ccc(CCc2nc3cc(-c4c(C)noc4C)ccc3n2C[C@H](C)N2CCOCC2)cc1Cl [SGC-CBP30],93.5,97.2,106,87.9,76.8,89.8,97.6,89.5,94.5,53.9,94.7,95.5,102,98.7,79.3,99.4,102,88.3,90.9,86.4,90.4,105,93.6,94.9,70.4,2.2,3.3,0.8,1.7,2.1,> 10,> 10,,> 10
NS(=O)(=O)c1ccc(C(=O)O)cc1 [carzenide],106,96.1,112,106,96.9,,,,,,,,,,,106,101,93.4,100,94.2,97.6,99.8,102,102,94.9,0,,,0,0,,> 10,> 10,> 10
Cc1c(C(=O)N2CCOc3ccc(-c4ccc(N)nc4)cc3C2)ccc(S(C)(=O)=O)c1F [XL388],115,105,103,77.8,43,110,108,103,95.6,66.7,102,101,102,98.3,50.2,102,104,103,68.5,33.7,110,115,99.5,92.5,39,6.1,2.3,2.8,7.7,4.6,,1.04,2.16,1.2
CS(=O)(=O)Nc1ccc([N+](=O)[O-])cc1Oc1ccccc1 [nimesulide],,,,,,,,,,,,,,,,,,,,,,,,,,,0,0,0,0,,,,
CC(=O)Nc1ccc(CC(=O)O)cc1 [actarit],96,94,93.7,99.9,96,,,,,,98.1,101,94.8,103,96.4,105,104,117,107,97.8,,,,,,0,,0,0,,> 10,> 10,,> 10
NS(=O)(=O)c1cc2c(cc1Cl)NCNS2(=O)=O [hydrochlorothiazide],,,,,,,,,,,,,,,,,,,,,,,,,,,0,0,0,,,,,
COc1ccc(Nc2ccn(-c3ccccc3)n2)cc1,102,98.5,90,97.4,89.4,,,,,,95,100,94.2,99.5,96.2,,,,,,102,97.2,97.6,114,100,0,,0,,0,> 10,,> 10,> 10
O=C(NO)c1ccc(O)c(O)c1 [didox],101,96.9,100,86.7,104,,,,,,,,,,,111,110,96.6,103,107,102,102,93.3,118,93.2,0,,,0,0,,> 10,> 10,> 10
